Assay results: patent US20020193424A1, “Human cancerous cell anti-proliferation and survival inhibition agent” (priority 2000, published 2002)

Experiments:
[1] = human, in vivo; cited from earlier work
[2] = test system: Human prostate carcinoma DU145 cells; assay: Percent cell death of DU145 cells; type: cell-based; conditions: 10% FBS, 50, 100 and 200 micromolars, 48 and 72 hours, compared with control and silymarin
Experimental: (§1) 1. Cells and Culture Conditions. Human prostate carcinoma DU145 cells were obtained from American Type Culture Collection (Bethesda, Md.), and cultured in RPMI 1640 containing 10% fetal bovine serum (FBS) and 1% penicillin-streptomycin under standard culture conditions. Alternatively, DU145 cells were cultured in 10% charcoal/dextran stripped FBS (cFBS) and 1% penicillin-streptomycin in the presence or absence of 1 nM DHT.
(§2) Silymarin and Silibinin derivatives were dissolved in ethanol for all the treatments. […] The dose and time of silibinin derivatives treatment are depicted in the associated drawings.
(§3) 2. Results. Referring to FIGS. 3 through 6, for the studies assessing the effect of silibinin derivatives on FBS-stimulated cell growth and cell death, DU145 cells were plated at 1×10^5 cells per 60 mm plate in RPMI 1640 containing 10% FBS and treated with either ethanol alone or varying concentrations of silymarin (“Si”) and silibinin derivatives (“D1” and “D2”) (50, 100 and 200 micromolars). Cells were counted at 48 and 72 hours after treatment with the subject compounds.
(§4) At the counting intervals, cells were trypsinized and collected in counting vials. Each plate was washed thoroughly with isotonic buffer containing 0.1% formalin and washings were collected in the original vials with trypsinized cells. Each vial was counted using Coulter Counter to determine the total cell number.

[3] = test system: Human prostate carcinoma DU145 cells; assay: FBS-stimulated cell growth of DU145 cells (total cell number, Coulter Counter); type: cell-based; conditions: 10% FBS, 50, 100 and 200 micromolars, counted at 48 and 72 hours, compared with control and silymarin
Experimental: as §1, §2, §3, §4

Row | Substance | tolerability / adverse effects [1] | percentage of cell death [2] | inhibition of cell growth [3]
1 | Silymarin | well tolerated and largely free of adverse effects |  | 
2 | 2,3-Dihydro-3-[3,4-dimethoxyphenyl]-2-[hydroxymethyl]-5,7-dimethoxy-4-oxobenzopyran-2-yl]benzodioxin [Derivative #1] |  | likewise improved percentage of cell death | remarkably improved inhibition of cell growth over the control and silymarin
